According to ChEMBL document CHEMBL3232814, “Synthesis and anticancer structure activity relationship investigation of cationic anthraquinone analogs” (2014):

Assays:
Assay type in all cases: functional
[1] = Growth inhibition of human SF295 cells; settings: SF-295
[2] = Growth inhibition of human NCI60 cells assessed as cell growth; design: concentration or dose not given beside the values
[3] = system: HOP-62; experiment: Growth inhibition of human HOP62 cells; settings: for CC50: read-out: LC50 (the source's name)
[4] = Growth inhibition of human UACC257 cells; settings: for GI50: UACC-257; for CC50: UACC-257, read-out: LC50 (the source's name)
[5] = system: KM12; experiment: Growth inhibition of human KM12 cells; settings: for CC50: read-out: LC50 (the source's name)
[6] = system: COLO 205; experiment: Growth inhibition of human COLO205 cells; settings: for CC50: read-out: LC50 (the source's name)
[7] = system: Malme-3M; experiment: Growth inhibition of human MALME-3M cells; settings: for CC50: read-out: LC50 (the source's name)
[8] = system: NCI-H460; experiment: Growth inhibition of human NCI-H460 cells; settings: for CC50: read-out: LC50 (the source's name)
[9] = system: HT-29; experiment: Growth inhibition of human HT-29 cells
[10] = system: NCI-H226; experiment: Growth inhibition of human NCI-H226 cells; settings: for CC50: read-out: LC50 (the source's name)
[11] = system: SK-MEL-5; experiment: Growth inhibition of human SK-MEL-5 cells
[12] = system: SK-MEL-2; experiment: Growth inhibition of human SK-MEL-2 cells; settings: for CC50: read-out: LC50 (the source's name)
[13] = system: SF-268; experiment: Growth inhibition of human SF268 cells; settings: for CC50: read-out: LC50 (the source's name)
[14] = Growth inhibition of human LOXIMVI cells; settings: LOX IMVI
[15] = system: Staphylococcus aureus; experiment: Antimicrobial activity against Staphylococcus aureus ATCC 25923 after 12 to 18 hrs by 2-fold serial dilution method
[16] = system: SW-620; experiment: Growth inhibition of human SW620 cells; settings: for CC50: read-out: LC50 (the source's name)
[17] = system: U-251; experiment: Growth inhibition of human U251 cells
[18] = system: A549; experiment: Growth inhibition of human A549 cells; settings: for CC50: read-out: LC50 (the source's name)
[19] = Growth inhibition of human HOP92 cells; settings: for GI50: HOP-92; for CC50: HOP-92, read-out: LC50 (the source's name)
[20] = system: SNB-19; experiment: Growth inhibition of human SNB19 cells
[21] = system: MDA-MB-435; experiment: Growth inhibition of human MDA-MB-435 cells; settings: for CC50: read-out: LC50 (the source's name)
[22] = system: SK-MEL-28; experiment: Growth inhibition of human SK-MEL-28 cells; settings: for CC50: read-out: LC50 (the source's name)
[23] = system: HCT-116; experiment: Growth inhibition of human HCT116 cells; settings: for CC50: read-out: LC50 (the source's name)
[24] = system: M14; experiment: Growth inhibition of human M14 cells; settings: for CC50: read-out: LC50 (the source's name)
[25] = system: NCI-H522; experiment: Growth inhibition of human NCI-H522 cells; settings: for CC50: read-out: LC50 (the source's name)
[26] = Growth inhibition of human UACC62 cells; settings: for GI50: UACC-62; for CC50: UACC-62, read-out: LC50 (the source's name)
[27] = system: NCI-H23; experiment: Growth inhibition of human NCI-H23 cells; settings: for CC50: read-out: LC50 (the source's name)
[28] = Growth inhibition of human HCT15 cells; settings: for GI50: HCT-15; for CC50: HCT-15, read-out: LC50 (the source's name)
[29] = system: NCI-H322M; experiment: Growth inhibition of human NCI-H322M cells; settings: for CC50: read-out: LC50 (the source's name)
[30] = Growth inhibition of human SF539 cells; settings: for GI50: SF-539; for CC50: SF-539, read-out: LC50 (the source's name)
[31] = system: SNB-75; experiment: Growth inhibition of human SNB75 cells; settings: for CC50: read-out: LC50 (the source's name)
[32] = Growth inhibition of human HCC2998 cells; settings: for GI50: HCC 2998; for CC50: HCC 2998, read-out: LC50 (the source's name)
[33] = Growth inhibition of human EKVX cells
[34] = read-out: LC50 (the source's name)

COc1ccc(-n2n[n+](C)c3c2C(=O)c2ccccc2C3=O)cc1OC.O=S(=O)([O-])C(F)(F)F
GI50 [1]: 200 nM | LC50 (concentration killing 50% of cells) [1]: 950 nM | Activity [2]: -31.51% | GI50 [3]: 1230 nM | CC50 [3]: 5.64 µM | GI50 [4]: 1490 nM | CC50 [4]: 5.34 µM | GI50 [5]: 1380 nM | CC50 [5]: 7.23 µM | GI50 [6]: 310 nM | CC50 [6]: 5.71 µM | GI50 [7]: 210 nM | CC50 [7]: 1.88 µM | GI50 [8]: 360 nM | CC50 [8]: 8.21 µM | GI50 [9]: 550 nM | LC50 [9]: 22.2 µM | GI50 [10]: 1300 nM | CC50 [10]: 6.85 µM | GI50 [11]: 160 nM | LC50 (lethal concentration 50) [11]: 570 nM | GI50 [12]: 1400 nM | CC50 [12]: 7.37 µM | GI50 [13]: 1230 nM | CC50 [13]: > 100 µM | GI50 [14]: 1140 nM | MIC [15]: 4 µg/mL | GI50 [16]: 1.66 µM | CC50 [16]: 8.87 µM | GI50 [17]: 1.34 µM | LC50 [17]: 5.11 µM | GI50 [18]: 400 nM | CC50 [18]: 8.97 µM | GI50 [19]: 2.27 µM | CC50 [19]: 58.8 µM | GI50 [20]: 1140 nM | LC50 [20]: 4.87 µM | GI50 [21]: 190 nM | CC50 [21]: 640 nM | GI50 [22]: 1340 nM | CC50 [22]: 6.47 µM | GI50 [23]: 1160 nM | CC50 [23]: 9.53 µM | GI50 [24]: 330 nM | CC50 [24]: 3.47 µM | GI50 [25]: 2 µM | CC50 [25]: 6.86 µM | GI50 [26]: 1220 nM | CC50 [26]: 5.09 µM | GI50 [27]: 1060 nM | CC50 [27]: > 100 µM | GI50 [28]: 1110 nM | CC50 [28]: 6.06 µM | GI50 [29]: 300 nM | CC50 [29]: 3.34 µM | GI50 [30]: 500 nM | CC50 [30]: 4.08 µM | GI50 [31]: 820 nM | CC50 [31]: 4.56 µM | GI50 [32]: 1650 nM | CC50 [32]: 5.79 µM

C[n+]1nn(-c2ccc(F)cc2)c2c1C(=O)c1ccccc1C2=O.O=S(=O)([O-])C(F)(F)F
GI50 [1]: 580 nM | LC50 (concentration killing 50% of cells) [1]: 4940 nM | Activity [2]: 43.38% | GI50 [3]: 2400 nM | CC50 [3]: 32.9 µM | GI50 [4]: 600 nM | CC50 [4]: 6.93 µM | GI50 [5]: 2400 nM | CC50 [5]: 33.5 µM | GI50 [6]: 350 nM | CC50 [6]: 3.54 µM | GI50 [7]: 350 nM | CC50 [7]: 4.75 µM | GI50 [8]: 630 nM | CC50 [8]: 9 µM | GI50 [9]: 2510 nM | LC50 [9]: 48 µM | GI50 [10]: 2260 nM | CC50 [10]: 23 µM | GI50 [11]: 170 nM | LC50 (lethal concentration 50) [11]: 600 nM | GI50 [12]: 2270 nM | CC50 [12]: 33.7 µM | GI50 [13]: 3670 nM | CC50 [13]: 46 µM | GI50 [14]: 1350 nM | CC50 [14, 34]: 8.17 µM | GI50 [16]: 6.12 µM | CC50 [16]: 47.5 µM | GI50 [17]: 7.86 µM | LC50 [17]: 45.3 µM | GI50 [18]: 670 nM | CC50 [18]: 5.46 µM | GI50 [19]: 10.7 µM | CC50 [19]: > 100 µM | GI50 [20]: 1370 nM | LC50 [20]: 5.88 µM | GI50 [21]: 260 nM | CC50 [21]: 2210 nM | GI50 [22]: 4270 nM | CC50 [22]: 45.9 µM | GI50 [23]: 1500 nM | CC50 [23]: 8.19 µM | GI50 [24]: 340 nM | CC50 [24]: 3.89 µM | GI50 [33]: 3.28 µM | CC50 [33, 34]: 62 µM | GI50 [25]: 12.1 µM | CC50 [25]: 53.8 µM | GI50 [26]: 1550 nM | CC50 [26]: 7.67 µM | GI50 [27]: 820 nM | CC50 [27]: 7.25 µM | GI50 [28]: 3720 nM | CC50 [28]: 50.9 µM | GI50 [29]: 450 nM | CC50 [29]: 4.22 µM | GI50 [30]: 1830 nM | CC50 [30]: 8.4 µM | GI50 [31]: 1940 nM | CC50 [31]: 7.17 µM | GI50 [32]: 1400 nM | CC50 [32]: 8.22 µM

C[n+]1nn(-c2ccc(Cl)cc2)c2c1C(=O)c1ccccc1C2=O.O=S(=O)([O-])C(F)(F)F
Activity [2]: 101.7%
